Bounds are passed on as bounds.

This note sets out measurements from patent publication US5965605A, “Inhibition of the binding human IgE to its receptor by tetracyclic compounds for the alleviation of IgE-mediated immune response” (Heska Corporation, priority 1997, dated 1999).

Data set [1] concerns IgE/FcεRI. Description: in situ rat passive cutaneous anaphylaxis (PCA) model. Type of data set: in vivo, Sprague Dawley rats. The settings on record: for Percent inhibition of PCA reaction: injected into skin with 0.03 μg/ml IgE. From the text:
The tetracyclic compounds that antagonized the IgE and FcεRIα interaction identified in the protein-based assay were further evaluated in the rat PCA model (Haak-Frendscho, et al., J. Immunol., 151:351-358, 1993). […] Mouse anti-dinitrophenyl IgE (Sigma ImmunoChemicals, St. Louis, Mo.) is a bifunctional antibody which binds to dinitrophenyl as well as FcεRI. Exposure of anti-dinitrophenyl-IgE to dinitrophenyl-albumin causes aggregation of the antibody and induces the IgE mediated immune response. […] Fifty microliters of these solutions were injected into the skin of the shaved back of Sprague Dawley rats (Taconic, Germantown, N.Y.). As a positive control, the same amount of anti-dinitrophenyl-IgE in the absence of a tetracyclic compound was injected into the skin of the same rat at a different site. After a period of two hours the sensitized rats were challenged with an intravenous injection of 1 mg/ml of dinitrophenyl-human albumin (Sigma ImmunoChemicals, St. Louis, Mo.) in 1% Evan's blue dye. Thirty minute later, the rats were killed and skinned. Percent inhibition was calculated by the reduction of blue dye at the tetracyclic compound treated injection sites versus the positive control sites.

Data set [2] in a line: Toxicity studies in mice, single I.V. injection. Format: in vivo. The source says: The potential toxic side effects following systemic administration was investigated by administering compound 1 in PBS to mice in single I.V. injection.
Data set [3] can be described thus: Pharmacokinetic studies in rats. The following applies: blood, iv, rat, 10 mg/kg I.V. Type of data set: in vivo. On the procedure: The pharmacokinetic (PK) profile of the compounds following systemic I.V. injection was measured. Compound 1 was formulated in PBS and given to a rat at 10 mg/kg. Blood was drawn from the rat at different time points after injection. The concentrations of compound 1 in the blood were measured by HPLC after separation from serum.

The subject of data set [4] is IgE/FcεRI. Description: Systemic PCA model in rats. Format: in vivo, Sprague Dawley rats. On the procedure: The compounds that have activity in the in situ PCA model were tested in the systemic PCA model. This model measures usefulness of a tetracyclic compound for blocking PCA in rats when the tetracyclic compound is administered systemically and the rats were sensitized with IgE at the skin. In this example, compound I was administrate first into the rats by intravenous (I.V.) injection, and immediately thereafter 0.03 μg/ml of anti-dinitrophenyl/IgE was injected into the skin of the shaved back of Sprague Dawley rats. After a sensitization period of 1 hr, the sensitized rats were challenged with an intravenous injection of 1 mg/ml of dinitrophenyl human albumin in 1% Evan's blue dye. Thirty minutes later, the rats were killed and skinned. As a positive control, PBS, lacking a tetracyclic compound, was administered by I.V. injection into Sprague Dawley rats, and the rats were treated in the same manner as the test rats. Percent inhibition of PCA obtained in this model is calculated by determining reduction of blue dye extracted from the tetracyclic compound treated rats compared to the positive control rats.

Data set [5] concerns the target human IgE / soluble FcεRI α (Fc-FcεRIα fusion protein). The data set can be described thus: Protein-based IgE-FcεRI binding assay (ELISA). The method, then: A protein-based in vitro assay was developed to screen for compounds which block the interaction between IgE and FcεRI. This assay used human IgE and soluble FcεRI α proteins which were prepared as outlined below. As will be described more below, the assay was performed in the format of an Enzyme-linked ImmunoSorbent Assay (ELISA) as follows. ELISA plates were prepared by coating 96-well plates with soluble FcεRI α protein. In the binding step, biotinylated IgE was captured by the FcεRI α in the wells. In the detection step, bound biotinylated IgE was quantitated by the addition of avidin-horseradish peroxidase and a chromogenic substrate. For the screening of antagonists, the IgE and FcεRI binding assay was performed in the presence of various testing compounds. Compounds that inhibit the interaction between IgE and FcεRI α could be readily detected. This assay was then applied to screen tens of thousand of compounds from a diversified chemical library.
To provide IgE for the ELISA, a recombinant IgE DNA construct was built by ligating a mouse heavy chain variable region, Vh, gene fragment to a human IgE heavy chain, Cε.
The growth medium collected from the above transfected cell culture was concentrated 30-50 times by membrane filtration (Filtron, Northboro, Mass.) and passed through a column of NIP (Genosys Biotechnologies Inc.)-bovine serum albumin (BSA) sepharose. The bound IgE was subsequently eluted from NIP-BSA sepharose using 5 M MgCl2. The eluate was then dialyzed in phosphate buffered saline (PBS). The integrity of the purified IgE was analyzed by SDS-polyacrylamide gel electrophoresis.
To provide soluble FcεRI α protein for ELISA, a DNA construct was made to produce soluble FcεRI α as a protein fused to the Fc region of the human immunoglobulin G heavy chain. The protein product of the construct will he termed Fc-FcεRIα.
The culture media of the cells producing Fc-FcεRI α fusion protein was collected and passed through a Protein A Sepharose column (Repligen, Cambridge, Mass.). The bound fusion protein was eluted from the Protein A Sepharose in 100 mM sodium citrate buffer (pH 4.0) and immediately neutralized with 0.1 volume of 1M Tris-hydrochloride, pH 8. The integrity of the purified protein was analyzed by SDS-polyacrylamide gel electrophoresis.
Fc-FcεRIα was diluted to 0.4 μg/ml in PBS and was used to coat 96-well plates. One hundred microliters of the FcεRIα fusion protein was added to wells of the 96-well plates, and the plate was incubated at 4° C. for 20 hr and washed twice with PBS/T (PBS containing 0.05% Tween-20). The non-specific binding sites in each of the wells were blocked with 200 μl of blocking buffer (PBS containing 1% of BSA and 1% of goat serum) at 37° C. for 2 hr. The plates were then washed 4 times with PBS/T and stored frozen at -20° C. The plates were thawed at room temperature just before use.
IgE was biotinylated as follows. Ten microliters of a 40 mg/ml sulfosuccimidyl 6-(biotinamido)-hexanolate (Pierce, Rockford, Ill.) in dimethylsulphoxide was added to 1 ml of 1 mg/ml IgE in sodium bicarbonate buffer, pH 8.0. After a 4 hr incubation at room temperature, the biotinylation was terminated by the addition of 25 μl of 2M Tris hydrochloride, pH 8 and the resulting biotinylated IgE was diayzed against PBS.
One hundred microliter of this solution was added to wells of a 96-well plate which had been previously coated with Fc-FcεRIα. […] After an additional one hour incubation at room temperature,the plate was again washed four times with PBS/T. The reaction with Avidin-HRP was developed by the addition of 100 μl of K-blue (Elisa Technologies, Lexington, Ky.) to each well.

Data set [6] addresses T1, human FcεRI transfected rat basophil leukemia cell line, SX38 (Homo sapiens, UniProt P01854+P12319).
T1 construct: biotinylated recombinant IgE (mouse VH, human Cε, J558L)
Description: Cell-based IgE-FcεRI binding assay. On the procedure: About 1×10^5 cells in 50 μl of medium were seeded in the wells of 96-well flat bottom plates. […] Forty microliters of this solution was applied to each well and incubated at room temperature for two hours. The plates were washed three times with PBS, and 40 μl of avidin-horseradish peroxidase, at 1 μg/ml in PBS, was added to each well. After an additional hour of incubation at room temperature, the plate was again washed three times with PBS. The subsequent steps for the measurement of the bound IgE were performed as described in the protein-based IgE-FcεRI binding assay.

T1 sequence (P12319 26-257): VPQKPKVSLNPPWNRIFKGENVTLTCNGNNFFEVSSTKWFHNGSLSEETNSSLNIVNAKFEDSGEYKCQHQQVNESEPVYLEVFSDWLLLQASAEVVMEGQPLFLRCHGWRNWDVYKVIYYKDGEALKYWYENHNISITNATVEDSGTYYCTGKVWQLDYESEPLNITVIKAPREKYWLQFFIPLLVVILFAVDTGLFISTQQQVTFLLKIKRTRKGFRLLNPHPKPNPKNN
T1 sequence (P01854 whole entry): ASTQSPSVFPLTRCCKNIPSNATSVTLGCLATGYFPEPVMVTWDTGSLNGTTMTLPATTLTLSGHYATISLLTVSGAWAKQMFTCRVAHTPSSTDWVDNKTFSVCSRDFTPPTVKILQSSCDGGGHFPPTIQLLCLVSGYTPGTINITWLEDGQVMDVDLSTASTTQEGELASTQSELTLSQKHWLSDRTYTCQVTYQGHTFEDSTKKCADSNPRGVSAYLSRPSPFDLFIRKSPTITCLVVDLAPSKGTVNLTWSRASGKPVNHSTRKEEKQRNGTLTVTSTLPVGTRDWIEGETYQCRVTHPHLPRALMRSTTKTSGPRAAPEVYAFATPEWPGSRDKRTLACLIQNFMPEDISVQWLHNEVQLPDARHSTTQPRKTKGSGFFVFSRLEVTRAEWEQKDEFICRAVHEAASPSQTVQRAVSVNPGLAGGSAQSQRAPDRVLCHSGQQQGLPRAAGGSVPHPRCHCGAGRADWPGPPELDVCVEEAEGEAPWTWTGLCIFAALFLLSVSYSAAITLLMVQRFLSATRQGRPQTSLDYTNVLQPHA
T1 sequence (Q01362 whole entry partner): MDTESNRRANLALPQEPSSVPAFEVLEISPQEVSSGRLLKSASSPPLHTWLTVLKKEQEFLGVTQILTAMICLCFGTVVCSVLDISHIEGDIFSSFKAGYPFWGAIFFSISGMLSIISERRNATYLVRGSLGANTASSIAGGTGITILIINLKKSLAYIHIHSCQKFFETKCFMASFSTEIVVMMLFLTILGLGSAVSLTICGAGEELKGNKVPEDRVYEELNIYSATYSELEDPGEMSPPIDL
T1 sequence (P30273 19-86 partner): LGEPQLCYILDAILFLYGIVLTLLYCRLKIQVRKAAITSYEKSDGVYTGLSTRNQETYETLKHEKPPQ

Broadly, the LD50 is the dose expected to kill half of the subjects tested. The low end stands for greater toxicity, the high end for lower toxicity. In general, inhibition refers to the change of the read-out against control, counted positive when it falls. The low end stands for a weak effect, the high end for a strong effect. One may read the IC50 as the point on the concentration scale where inhibition reaches its midpoint. Turning to `O=C(O)c1c(Cl)c(Cl)c(Cl)c(Cl)c1-c1c2cc(I)c(=O)c(I)c-2oc2c(I)c(O)c(I)cc12` (single isomer, unassigned) [Compound 1], the “Percent inhibition of PCA reaction” value in the data set on IgE/FcεRI [1] (0.25 μg/ml) is given as 5%; in the data set with IgE/FcεRI [1] (0.5 μg/ml), 66%; in the data set with IgE/FcεRI [1] (1 μg/ml) it was 100%. Besides, the “IC50, inhibition of anaphylaxis in the rat PCA model” value with IgE/FcεRI [1] (in situ rat PCA model) amounted to 0.46 µg/mL. Also, the “No. of Death” value in data set [2] (400 mg/kg I.V., single injection, 3 mice) was determined as 0. Further, the median lethal dose (LD50) in data set [2] (mouse, in vivo, iv, mice, single I.V. injection in PBS) was > 400 mg/kg. The same compound registered a concentration at 0 h in data set [3] (0 minute) of 83000 ng/mL. This compound also had a concentration at 0.25 h in data set [3] (15 minute) of 2510 ng/mL. Besides, in data set [3] (30 minute), the concentration at 0.5 h was 902 ng/mL. The compound also came in with a concentration at 1 h in data set [3] (60 minute) of 720 ng/mL. The compound further returned a concentration at 2 h in data set [3] (120 minute) of 625 ng/mL. In data set [3] (240 minute), this compound returned a concentration at 4 h of 512 ng/mL. Besides, the “% Inhibition of PCA” value with IgE/FcεRI [4] (47 mg/kg I.V.) worked out at 2.0%; in the data set on IgE/FcεRI [4] (70 mg/kg I.V.), 64.0%; with IgE/FcεRI [4] (94 mg/kg I.V.) it was 104.0%; in the data set on IgE/FcεRI [4] (114 mg/kg I.V.), 102.0%. The “IC50, inhibition of IgE/FcεRI binding” value in data set [5] was determined as 0.34 µg/mL. Besides, the “% Inhibition of IgE/FcεRI binding” value in data set [5] (10 μg/ml) came to 98%. For the same compound, the inhibition at 10 µg/mL in data set [6] (10 μg/ml) was determined as 46%. The IC50 in data set [6] (read-out: IC50, inhibition of IgE-FcεRI binding (converted)) was 12 µM.
